Values quoted from earlier work, collected in patent US7662571B2, “Mitochondrial markers of ischemia” (Nourheart Inc., priority 2005, dated 2010).
Values belong to the substance of their own block, whether it stands above or below them. No end group written: not given here.

Columns and labels:
FPR-like 2 (FPRL2) = target: T1, FPR-like 2 (FPRL2) (Homo sapiens, UniProt P25089); conditions: FPRL2, low-affinity receptor
T1 sequence (P25089 1-353): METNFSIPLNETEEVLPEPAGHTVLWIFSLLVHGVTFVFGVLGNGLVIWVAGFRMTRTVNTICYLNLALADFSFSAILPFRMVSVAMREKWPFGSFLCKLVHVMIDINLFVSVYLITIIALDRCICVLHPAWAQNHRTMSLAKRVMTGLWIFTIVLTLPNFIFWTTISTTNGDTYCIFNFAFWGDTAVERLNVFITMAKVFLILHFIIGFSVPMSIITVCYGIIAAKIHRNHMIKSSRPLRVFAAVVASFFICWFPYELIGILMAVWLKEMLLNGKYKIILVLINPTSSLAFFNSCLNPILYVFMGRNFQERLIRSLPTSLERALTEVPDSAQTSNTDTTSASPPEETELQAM

[1] = target: T2, FMLP receptor (68-kDa protein) (Homo sapiens, UniProt P21462)
T2 sequence (P21462 1-350): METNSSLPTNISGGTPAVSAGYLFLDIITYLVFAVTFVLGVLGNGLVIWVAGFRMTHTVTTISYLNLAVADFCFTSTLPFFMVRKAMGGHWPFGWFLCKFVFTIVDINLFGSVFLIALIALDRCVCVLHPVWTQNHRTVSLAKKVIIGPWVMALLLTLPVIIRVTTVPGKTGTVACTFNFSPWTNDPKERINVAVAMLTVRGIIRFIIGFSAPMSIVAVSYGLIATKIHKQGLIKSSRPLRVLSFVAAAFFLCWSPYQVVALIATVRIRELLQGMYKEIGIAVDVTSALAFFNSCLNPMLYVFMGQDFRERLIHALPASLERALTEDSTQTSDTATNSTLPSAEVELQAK

Substance: LVVYPWT [spinorphin, Leu-Val-Val-Tyr-Pro-Trp-Thr]
chemotaxis of neutrophils caused by the low mwt chemoattractant (neutrophils): inhibited

Substance: formyl-Met-Leu-Phe [fMLP]
concentration needed for receptor activation (FPR-like 2 (FPRL2)): only activated by high (micromolar) concentrations

inhibition of ligand binding to the 68-kDa protein [1]: strongest inhibitor of ligand binding
Substance: RKAMGGHWPFGWFLCKFl (FMLP receptor derived peptide) [synthetic 17-aa peptide]
